In US12528777B2, “Quinazolinones derivatives for treatment of non-alcoholic fatty liver disease, preparation and use thereof” (Council of Scientific and Industrial Research, priority 2020, dated 2026):
Entries after “also recorded” stand apart in the source; their conditions may differ.

Tests used:
[1] = molecular target: COP1 (Homo sapiens, UniProt Q8NHY2); test: In vitro ubiquitination of purified ATGL by COP1 with UbcH6; type: biochemical; parameters: host or cells: HEK293A; conditions: 5 μM compound, COP1 overexpressing HEK293A lysate
Chain of COP1 (Q8NHY2 whole entry): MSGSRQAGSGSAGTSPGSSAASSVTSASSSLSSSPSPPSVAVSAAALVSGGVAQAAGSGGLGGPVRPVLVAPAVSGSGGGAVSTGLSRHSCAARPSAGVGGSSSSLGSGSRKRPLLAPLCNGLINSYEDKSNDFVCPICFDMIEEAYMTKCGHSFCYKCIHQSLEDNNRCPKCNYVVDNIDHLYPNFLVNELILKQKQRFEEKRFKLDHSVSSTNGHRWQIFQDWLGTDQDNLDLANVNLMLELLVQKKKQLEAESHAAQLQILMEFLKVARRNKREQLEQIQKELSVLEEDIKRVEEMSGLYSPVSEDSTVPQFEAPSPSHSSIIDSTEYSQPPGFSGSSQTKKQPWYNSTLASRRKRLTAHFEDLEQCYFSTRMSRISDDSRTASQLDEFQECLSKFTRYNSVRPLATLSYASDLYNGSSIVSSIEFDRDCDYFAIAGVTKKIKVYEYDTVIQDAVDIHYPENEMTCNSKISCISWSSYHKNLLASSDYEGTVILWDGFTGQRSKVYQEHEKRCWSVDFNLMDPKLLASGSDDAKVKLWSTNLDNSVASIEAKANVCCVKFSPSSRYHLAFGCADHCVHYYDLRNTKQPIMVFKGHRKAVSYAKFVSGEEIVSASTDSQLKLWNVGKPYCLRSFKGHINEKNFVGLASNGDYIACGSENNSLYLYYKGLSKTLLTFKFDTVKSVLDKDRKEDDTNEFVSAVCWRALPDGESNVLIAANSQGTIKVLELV
Description: Purification of ATGL protein and obtaining COP1 overexpressing cell lysate: Myc-ATGL plasmid and Myc-DDK-COP1 plasmid ([…] each) were transfected separately in cultured HEK293A cells with the help of Lipofectamine2000 (Invitrogen). Cells were harvested in Lysis Buffer and protein solution was extracted as described previously. The Lysis Buffer used to harvest COP1 overexpressing cells had 0.1% SDS supplemented in it. The concentration of protein was estimated using Bradford assay. For source of E3 ligase, the total cell lysate from COP1 overexpressing HEK293A cells were used.
For purification of Myc-ATGL: 1 ml of Ni^2+-NTA resin (Roche) was taken in a 15 ml centrifuge tube and centrifuged at 2000 RPM for 5 minutes. The upper ethanol layer was discarded and the pellet was washed in 1×PBS twice to remove any remaining traces of ethanol. The pellet was finally washed once with Lysis Buffer for equilibration. […] The tube was incubated overnight at 4° C. in a rotary shaker.
The next day, the solution was centrifuged at 2000 RPM for 10 minutes and the supernatant collected. Lysis Buffer (containing protease inhibitor cocktail twice the previous concentration) was used for washing the beads twice to remove non-specific and unattached reactants in a stringent condition. The beads were finally washed once with 1×PBS containing the same amount of protease inhibitor for equilibration. 300 μl of 500 mM Imidazole (Sigma Aldrich) solution in 1×PBS was added to the resin for elution of ATGL and centrifuged at 2000 RPM for 30 minutes and the eluted protein was collected. To the separated resin, 300 μl of 1M Imidazole solution was added and centrifuged at 2000 RPM for 30 minutes and the second elute was collected. […] of eluted protein from each elution was boiled with 5 μl of Laemmli's buffer at 95° C. for 10 minutes and run in 10% SDS-PAGE gel. The supernatant collected before elution of ATGL and the proteins still attached to the Ni^2+-NTA resin were also run in the SDS-PAGE. The resolved proteins were subsequently transferred on PVDF membranes and probed with anti-myc primary antibody to check the presence of purified ATGL in the elute. Also to check the yield of the purified protein, 40 μl of the elute was run in 10% SDS page and stained with Coomassie Brilliant Blue solution followed by destaining with methanol, glacial acetic acid and water in a 50:40:10 ratio.
For identifying the E2 ubiquitin-conjugating enzyme responsible for ATGL ubiquitination by COP1, an in vitro ubiquitinylation kit (Enzo Life Sciences) was used. The assay was reconstituted as per manufacturer's protocol with the panel of E2 conjugating enzymes provided and other required components at the mentioned concentrations. The reaction was carried out for 6 hours following which it was quenched as per directions with the provided 2× non-reducing gel buffer and then analysed by western blotting.
Having identified the E2 ubiquitin conjugating enzyme as UbcH6, ubiquitination assay was set up in vitro as described previously with 5 μM of the compound 9, 107, 171, 179 and 73 followed by quenching and analysis by western blotting.
Ubiquitination of a target protein is carried out in a three step process involving three different enzymes: E1 ubiquitin activating enzyme, E2 ubiquitin conjugating enzyme and E3 ubiquitin ligase. In humans, there is only one E1 ubiquitin activating enzyme and multiple E2 and E3 enzymes. […]

[2] = test system: ATGL; test: ATGL level in mouse adipose tissue explants (western blot); type: cell-based; conditions: 24 hours, 100 nM, 500 nM and 1 μM
Experimental: To further strengthen the efficiency of the compounds 9 and 107, primary hepatocytes were isolated from mice and these compounds were treated in a dose dependent manner for 24 hours. Primary hepatocytes and adipose tissue explants were isolated from mice and subjected to compound treatment for 24 hours at the doses of 100 nM, 500 nM and 1 μM. Post cell harvesting, western blot was carried out with the lysate to check the ATGL level. ATGL and COP1 antibodies were used. Actin served the purpose of a loading control.
2. Adipocytes—2-4 months old chow-fed black male mouse (C57bl/6) was sacrificed using chloroform (SRL) and was cleaned with 70% ethanol. Under aseptic conditions, the ventral side of the mouse was cut open, and gonadal (epididymal) white adipose tissue were excised using scissors and suspended in 1×PBS supplemented with 0.1% BSA in a 10 cm culture plate. The attached blood vessels were removed and the adipose tissue was minced as much as possible. The suspension was centrifuged at 50 g for 2 minutes at 4° C. After centrifugation, the adipose tissue pieces suspended at the uppermost layer of the supernatant as emulsion were carefully extracted and plated in DMEM in 35 mm culture dishes. The explant tissue thus obtained was treated with different concentrations of compounds after 6-7 hours.

[3] = test system: ATGL; test: Reversal of ATGL decrease in COP1 overexpressing HepG2 cells; type: cell-based; conditions: myc-DDK-COP1, 5 μM, 24 hours
Experimental: COP1 is an E3 ubiquitin ligase with ATGL as one of its targets for ubiquitination and subsequent proteasomal degradation by 26S proteasome. Therefore, it is only legit for ATGL levels to decrease upon COP1 overexpression. To this end, HepG2 cells were transfected with 500 ng of myc-DDK-COP1 plasmid using Lipofectamine 2000 and treated with 5 μM of the compounds 9 and 10 for 24 hours. 48 hours post transfection, cells were harvested and western blot was carried out.

| Compound | ATGL ubiquitination by COP1 in vitro [1] | ATGL level in mouse adipose explants [2] | Restoration of ATGL level upon COP1 overexpression [3] |
| --- | --- | --- | --- |
| COCCn1cnc2ccc(NC(=O)Nc3cccc(C(C)=O)c3)cc2c1=O [Compound 9, 1-(3-acetylphenyl)-3-(3-(2-methoxyethyl)-4-oxo-3,4-dihydroquinazolin-6-yl)urea] | effective in reducing the ubiquitination of ATGL by COP1; also recorded: significant efficacy in curbing ATGL ubiquitination by COP1 | no such changes were observed; also recorded: this effect was absent; also recorded: did not show any significant changes in ATGL protein | could restore the reduced ATGL level; also recorded: could restore ATGL to its normal level |
| COCC(C)n1cnc2ccc(NC(=O)Nc3cccc(C(C)=O)c3)cc2c1=O (stereo not drawn) [Compound 179, 1-(3-acetylphenyl)-3-(3-(1-methoxypropan-2-yl)-4-oxo-3,4-dihydroquinazolin-6-yl)urea] | effective in reducing the ubiquitination of ATGL by COP1; also recorded: significant efficacy in curbing ATGL ubiquitination by COP1 |  |  |
| COCCn1c(C)nc2ccc(NC(=O)Nc3cccc(C(C)=O)c3)cc2c1=O [Compound 107, 1-(3-acetylphenyl)-3-(3-(2-methoxyethyl)-2-methyl-4-oxo-3,4-dihydroquinazolin-6-yl)urea] | effective in reducing the ubiquitination of ATGL by COP1; also recorded: significant efficacy in curbing ATGL ubiquitination by COP1 | no such changes were observed; also recorded: this effect was absent; also recorded: did not show any significant changes in ATGL protein |  |
